Test results from patent US20060178307A1, “Modulation of NMDA receptor currents via orexin receptor and/or CRF receptor” (priority 2005, published 2006).
Entries after “also recorded” stand apart in the source; their conditions may differ. Where no end group is shown, it is not given here.

Tests used:
locomotor activity = test: Locomotor sensitization to cocaine, intra-VTA OXR1 antagonist, 7-day paradigm; type: in vivo, Sprague-Dawley rats
Description: Male Sprague-Dawley rats (250 grams) were implanted with bilateral cannulae directed at the VTA (AP, −5.2; ML, ±0.5, DV −8.0). Following recovery from surgery, animals were tested in a cocaine sensitization assay similar to that used for systemic administration of the OXR1 antagonist, but with two changes: a 7-day sensitization paradigm was used, and the OXR1 antagonist SB 334867 was microinjected directly into the VTA (6 μg/hemisphere in 300 nL solution composed of 10% DMSO in water). All other methods for habituation and data collection were identical to that described above. Rats were deeply anesthetized with pentobarbital, and perfused with a 10% formaldehyde solution. Brains were cryoprotected in 25% sucrose, 40 μm coronal sections were cut on a freezing microtome, and sections were mounted, dried and coverslipped. Injection sites were located under a light microscope and recorded on atlas figures adapted from Paxinos and Watson (1997).

reinforcement for food = test: Operant food self-administration, progressive ratio schedule; type: in vivo, rats
Description: (§1) After 3-4 weeks of self-administration of cocaine (0.5 mg/infusion) ramping from fixed ratio of 1 lever press (FR1) to receive a reward to a stable fixed ratio of 5 lever presses to receive a reward (FR5) schedule, animals lever pressed for cocaine on a progressive ratio schedule for 4 days. On the second and third day, each animal received a vehicle injection (i.p.), and on the fourth day the animals received an injection (i.p.) of the OXR1 antagonist: SB334867, 10 mg/kg. As a control, orexin modulation of food self-administration was examined under the same paradigm. For food self-administration, animals were trained to an FR5 schedule for food pellets.
This effect of the OXR1 antagonist was not observed with respect to reinforcement for food. Rats were trained to lever press for food on an […] schedule, and subsequently a progressive ratio schedule. Rats were given vehicle on the 2nd and 3rd day of progressive ratio testing and then SB 334867 (10 mg/kg, i.p.) on the 4th day.

cocaine reinforcement = test: Operant cocaine self-administration, progressive ratio schedule; type: in vivo, rats; conditions: 10 mg/kg i.p. on 4th day of progressive ratio, n=12
Description: Rats were cannulated with an intra-venous cannula to their jugular vein. After one week to 10 days of recovery, the animals were trained to lever press for cocaine (0.5 mg/infusion, 2 second infusion) in Coulburn self-administration boxes. A tone and light above the active lever signalled during a press for cocaine and then a 20 second timeout followed the active lever press.
as §1

[1] = test system: AMPAR-mediated EPSCs in VTA dopamine neurons; test: Evoked AMPAR-mediated EPSCs recorded at −70 mV, VTA slices; type: cell-based, rat; conditions: orexin A 100 nM
Description: Excitatory postsynaptic currents (EPSCs) were recorded from VTA neurons in rat midbrain slices. EPSCs were evoked while holding neurons in voltage clamp at +40 mV. Measurements were taken 20 ms after the stimulus artifact, a time point at which the glutamatergic EPSC is mediated purely by NMDARs.
All of the electrophysiological recordings were performed in rats ranging from P21 to P30. Briefly, rats were anesthetized with halothane and sacrificed. Horizontal sections of the VTA ([…]) were prepared with a vibratome (Leica, Nussloch, Germany). Slices were placed in a holding chamber and allowed to recover for at least 1 hour before being placed in the recording chamber and superfused with bicarbonate-buffered solution (ACSF) saturated with 95% O2/5% CO2 and containing (in mM): 119 NaCl, 1.6 KCl, 1.0 NaH2PO4, 1.3 MgCl2, 2.5 CaCl2, 26.2 NaHCO3 and 11 glucose (at 32-34° C.). Picrotoxin (100 μM) was added to block GABAA receptor-mediated inhibitory postsynaptic currents. Cells were visualized using infrared differential interference contrast video microscopy. Whole-cell voltage clamp recordings were made using an Axopatch 1D amplifier (Axon Instruments, Union City, Calif.). […] Series resistance (10-40 MΩ) and input resistance were monitored on-line with a 4-mV depolarizing step (50 ms) given just after every afferent stimulus. […]

[2] = 10 mg/kg i.p. on 4th day of progressive ratio, n=10

For `Cc1nc2ccc(NC(=O)Nc3ccnc4cccnc34)cc2o1.Cl` [SB 334867, 1-(2-methylbenzoxazol-6-yl)-3-[1,5]naphthyridin-4-yl urea hydrochloride], the “development of locomotor sensitization to cocaine” value (locomotor activity; daily intra-VTA 6 μg/hemisphere prior to cocaine 15 mg/kg, 7 days) was “abolished”, the “mean locomotor distance on day 7” value (locomotor activity; intra-VTA OXR1 antagonist 6 μg/hemisphere + cocaine) was 19274±4559 cm and the “expression of pre-existing cocaine sensitization” value (locomotor activity; single intra-VTA injection) was “did not affect”. For the same compound, the “breakpoint (food)” value (reinforcement for food; [2]) was “unaltered”, the “total number of food pellets received” value (reinforcement for food; [2]) was “not altered” and the reinforcement for food (reinforcement for food; 10 mg/kg i.p., hydrochloride) was “not observed; also recorded: did not alter”. For the same compound, the “breakpoint (cocaine)” value (cocaine reinforcement) was “reduced”, the “natural log of active lever presses for cocaine” value (cocaine reinforcement) was “reduced” and the “raw active lever presses for cocaine” value (cocaine reinforcement) was “reduced”. For the same compound, the “total number of cocaine infusions” value (cocaine reinforcement) was “decreased”.

In the case of “orexin A: neuropeptide synthesized in neurons of the LH; orexin receptor agonist selective for the OXR1 receptor (QPLPDCCRQKTCSCRLYELLHGAGNHAAGILTL; ends and bridges not checked; cysteine pairing not given here; UniProt O43612 34-66, looked up)”, the “change of AMPAR-mediated EPSCs” value ([1]; n=8) is reported as “not changed” and the “change of AMPAR-mediated EPSCs” value ([1]; n=8, listed as Orexin A) is reported as “does not increase”.
